In ChEMBL document CHEMBL1150212, “Antitumor agents, 129. Tannins and related compounds as selective cytotoxic agents” (1992):
*1 amine or outer side, *2 acyl side, *3 side chain or, on linkers, in order; H or OH if unused. Where a SMILES comes first, the peptide text is derived from it. Bridges are numbered along the chain shown (N, C = ends). Roman numbers before positions name the chains, in order. [ ]: non-standard residue; d: D form. Actinocin(1to9) = Cc1c2oc3c(C)ccc(C(=O)[*:2])c3nc-2c(C(=O)[*:1])c(N)c1=O; NMeV = CN[C@H](C(=O)O)C(C)C; Sar = CNCC(=O)O

Experiments:
Format in all cases: functional
Conditions in all cases: read-out: ED50 (the source's name)
TE-671 = assay: Cytotoxicity against human TE671 cells by tetrazolium salt-based colorimetric assay
KB = assay: Cytotoxicity against human KB cells by tetrazolium salt-based colorimetric assay
A549 = assay: Cytotoxicity against human A549 cells by tetrazolium salt-based colorimetric assay
[1] = Cytotoxicity against human […] cells by tetrazolium salt-based colorimetric assay
HCT-8 = assay: Cytotoxicity against human HCT8 cells by tetrazolium salt-based colorimetric assay

Row | SMILES | EC50 (TE-671) | EC50 (KB) | EC50 (A549) | EC50 [1] | EC50 (HCT-8)
1 | O=C(O)C[C@H]1C(=O)O[C@H]2[C@H](OC(=O)c3cc(O)c(O)c(O)c3)[C@@H](OC(=O)c3cc(O)c(O)c4c3[C@H]1[C@H](O)C(=O)O4)[C@H](OC(=O)c1cc(O)c(O)c(O)c1)O[C@@H]2COC(=O)c1cc(O)c(O)c(O)c1 [CHEBULINIC ACID] | > 10 µg/mL | > 10 µg/mL | > 10 µg/mL | > 10 µg/mL | > 10 µg/mL
2 | O=C(OC[C@H]1O[C@@H](O)[C@H](OC(=O)c2cc(O)c(O)c(O)c2)[C@@H](OC(=O)c2cc(O)c(O)c(O)c2)[C@@H]1OC(=O)c1cc(O)c(O)c(O)c1)c1cc(O)c(O)c(O)c1 | > 10 µg/mL | > 10 µg/mL | > 10 µg/mL | > 10 µg/mL | > 10 µg/mL
3 | O=C(OC[C@H]1OC(O)[C@@](O)(COC(=O)c2cc(O)c(O)c(O)c2)[C@@H]1O)c1cc(O)c(O)c(O)c1 (stereo partly specified) [HAMAMELITANNIN] | > 10 µg/mL | > 10 µg/mL | > 10 µg/mL | > 10 µg/mL | > 10 µg/mL
4 | O=C(OC[C@H]1O[C@@H](OC(=O)c2cc(O)c(O)c(O)c2)[C@H](O)[C@@H](O)[C@@H]1O)c1cc(O)c(O)c(O)c1 | > 10 µg/mL | > 10 µg/mL | > 10 µg/mL | > 10 µg/mL | > 10 µg/mL
5 | O=C(O[C@@H]1C[C@](O)(C(=O)O)C[C@@H](OC(=O)c2cc(O)c(O)c(O)c2)[C@H]1OC(=O)c1cc(O)c(O)c(O)c1)c1cc(O)c(O)c(O)c1 | > 10 µg/mL | > 10 µg/mL | > 10 µg/mL | > 10 µg/mL | > 10 µg/mL
6 | O=C1OC[C@H]2OC(=O)c3cc(O)c(O)c(O)c3-c3c(O)c(O)c(O)c4c3C(=O)O[C@H]([C@H]3OC(=O)c5c-4c(O)c(O)c(O)c5[C@@H]3C3(O)OC[C@H](O)[C@@H](O)[C@H]3O)[C@@H]2OC(=O)c2cc(O)c(O)c(O)c2-c2c1cc(O)c(O)c2O (stereo partly specified) [GRANDININ] | > 10 µg/mL | > 10 µg/mL | > 10 µg/mL | 0.1 µg/mL | > 10 µg/mL
7 | O=C(O[C@@H]1O[C@@H]2COC(=O)c3cc(O)c(O)c(O)c3-c3c(cc(O)c(O)c3O)C(=O)O[C@@H]3[C@H]1OC(=O)c1cc(O)c(O)c4c1C1C(O)(O4)[C@]4(O)C[C@@]5(C(=O)O[C@H]6C(O)CO[C@@]65O)[C@]1(CC4=O)C(=O)O[C@@H]32)c1cc(O)c(O)c(O)c1 (stereo partly specified) [ELAEOCARPUSIN] | > 10 µg/mL | > 10 µg/mL | > 10 µg/mL | 2.62 µg/mL | > 10 µg/mL
8 | O=C1OC[C@H]2OC(=O)c3cc(O)c(O)c(O)c3-c3c(O)c(O)c(O)c4c3C(=O)O[C@H]([C@@H]3OC(=O)c5c-4c(O)c(O)c(O)c5[C@@H]3c3c(O)cc(O)c4c3O[C@H](c3ccc(O)c(O)c3)[C@@H](O)C4)[C@H]2OC(=O)c2cc(O)c(O)c(O)c2-c2c1cc(O)c(O)c2O [ACUTISSIMIN A] | > 10 µg/mL | > 10 µg/mL | > 10 µg/mL | 0.61 µg/mL | > 10 µg/mL
9 | CC1(C)CC[C@]2(C(=O)O[C@@H]3O[C@H](CO)[C@@H](O)[C@H](O)[C@H]3O)CC[C@]3(C)C(=CC[C@@H]4[C@@]5(C)C[C@@H](O)[C@@H]6OC(=O)c7cc(O)c(O)c(O)c7-c7c(cc(O)c(O)c7O)C(=O)OC[C@@]6(CO)[C@@H]5CC[C@]43C)[C@@H]2C1 [CASTANOPSININ A] | > 10 µg/mL | > 10 µg/mL | > 10 µg/mL | > 10 µg/mL | > 10 µg/mL
10 | O=C(O[C@@H]1Cc2c(O)cc(O)cc2O[C@@H]1c1ccc(O)c(O)c1)c1cc(O)c(O)c(O)c1 [EPICATECHIN GALLATE] | > 10 µg/mL | > 10 µg/mL | > 10 µg/mL | 0.55 µg/mL | > 10 µg/mL
11 | Oc1cc(O)c2c(c1)O[C@H](c1ccc(O)c(O)c1)[C@H](O)[C@H]2c1c(O)cc(O)c2c1O[C@H](c1ccc(O)c(O)c1)[C@H](O)C2 [PROCYANIDIN B2] | > 10 µg/mL | > 10 µg/mL | > 10 µg/mL | > 10 µg/mL | > 10 µg/mL
12 | O=C1OC[C@H]2OC(=O)c3cc(O)c(O)c(O)c3-c3c(O)c(O)c(O)c4c3C(=O)O[C@H]([C@H]3OC(=O)C5C4=C(O)C(=O)C54Oc5cc(O)c6c(c5[C@H]34)O[C@H](c3ccc(O)c(O)c3)[C@@H](O)C6)[C@@H]2OC(=O)c2cc(O)c(O)c(O)c2-c2c1cc(O)c(O)c2O [MONGOLICAIN A] | > 10 µg/mL | > 10 µg/mL | > 10 µg/mL | > 10 µg/mL | > 10 µg/mL
13 | CC1(C)CC[C@]2(C(=O)O)CC[C@]3(C)C(=CC[C@@H]4[C@@]5(C)C[C@@H](O)[C@@H]6OC(=O)c7cc(O)c(O)c(O)c7-c7c(cc(O)c(O)c7O)C(=O)OC[C@@]6(CO)[C@@H]5CC[C@]43C)[C@@H]2C1 [CASTANOPSINIIN A] | > 10 µg/mL | > 10 µg/mL | > 10 µg/mL | > 10 µg/mL | > 10 µg/mL
14 | O=C1O[C@H]([C@@H]2OC(=O)c3cc(O)c(O)c(O)c3-c3c(O)c(O)c4oc(=O)c5c(c(O)c(O)c6oc(=O)c3c4c65)-c3c(cc(O)c(O)c3O)C(=O)OC[C@H]2O)[C@@H]2OC(=O)c3c(c(O)c(O)c(O)c3[C@H]2O)-c2c1cc(O)c(O)c2O [PUNICACORTEIN C] | > 10 µg/mL | > 10 µg/mL | > 10 µg/mL | 3.86 µg/mL | > 10 µg/mL
15 | O=C1OCC2OC(=O)c3cc(O)c(O)c(O)c3-c3c(O)c(O)c(O)c4c3C(=O)OC(C2OC(=O)c2cc(O)c(O)c(O)c2-c2c1cc(O)c(O)c2O)C1OC(=O)c2c-4c(O)c(O)c(O)c2C1O (stereo unspecified) [VESCALAGIN] | > 10 µg/mL | > 10 µg/mL | > 10 µg/mL | 0.58 µg/mL | > 10 µg/mL
16 | O=C1O[C@H]2[C@@H]3OC(=O)c4cc(O)c(O)c(O)c4-c4c(cc(O)c(O)c4O)C(=O)OC[C@H]2O[C@@H](OC(=O)c2cc(O)c(O)c(O)c2)[C@@H]3OC(=O)c2cc(O)c(O)c3c2[C@@H]2C1=CC(=O)[C@](O)(O3)C2(O)O [GERANIIN] | > 10 µg/mL | > 10 µg/mL | > 10 µg/mL | 0.35 µg/mL | > 10 µg/mL
17 | O=C(OC[C@H]1OC(O)[C@@](O)(COC(=O)c2cc(O)c(O)c(O)c2)[C@@H]1OC(=O)c1cc(O)c(O)c(O)c1)c1cc(O)c(O)c(O)c1 (stereo partly specified) | > 10 µg/mL | > 10 µg/mL | > 10 µg/mL | > 10 µg/mL | > 10 µg/mL
18 | O=C1OC[C@H]2OC(=O)c3cc(O)c(O)c(O)c3-c3c(O)c(O)c(O)c4c3C(=O)O[C@H]([C@H]3OC(=O)c5c-4c(O)c(O)c(O)c5[C@H]3O)[C@@H]2OC(=O)c2cc(O)c(O)c(O)c2-c2c1cc(O)c(O)c2O [CASTALAGIN] | > 10 µg/mL | > 10 µg/mL | > 10 µg/mL | 0.79 µg/mL | > 10 µg/mL
19 | O=C(O[C@@H]1COC(=O)c2cc(O)c(O)c(O)c2-c2c(cc(O)c(O)c2O)C(=O)O[C@H]1[C@@H]1OC(=O)c2cc(O)c(O)c(O)c2-c2c(O)c(O)c(O)c3c2C(=O)O[C@H]1[C@@H]3O)c1cc(O)c(O)c(O)c1 [CASUARININ] | > 10 µg/mL | > 10 µg/mL | > 10 µg/mL | 2.24 µg/mL | > 10 µg/mL
20 | O=C(O)C1=C[C@@H](OC(=O)c2cc(O)c(O)c(O)c2)[C@@H](O)[C@H](OC(=O)c2cc(O)c(O)c(O)c2)C1 | > 10 µg/mL | > 10 µg/mL | > 10 µg/mL | > 10 µg/mL | > 10 µg/mL
21 | O=C(O)C1=C[C@@H](O)[C@@H](O)[C@H](OC(=O)c2cc(O)c(O)c(O)c2)C1 | > 10 µg/mL | > 10 µg/mL | > 10 µg/mL | > 10 µg/mL | > 10 µg/mL
22 | Oc1cc(O)c2c(c1)O[C@H](c1ccc(O)c(O)c1)[C@@H](O)C2 [CIANIDANOL] | > 10 µg/mL | > 10 µg/mL | > 10 µg/mL | > 10 µg/mL | > 10 µg/mL
23 | O=C(O[C@@H]1O[C@@H]2COC(=O)c3cc(O)c(O)c(O)c3-c3c(cc(Oc4c(C(=O)O)cc(O)c(O)c4O)c(O)c3O)C(=O)O[C@H]([C@H]1O)[C@@H]2O)c1cc(O)c(O)c(O)c1 [MALLOTINIC ACID] | > 10 µg/mL | > 10 µg/mL | > 10 µg/mL | > 10 µg/mL | > 10 µg/mL
24 | O=C1O[C@H]2[C@H](O)[C@@H](OC(=O)c3cc(O)c(O)c4c3[C@@H]3C1=CC(=O)C(O)(O)C3(O)O4)[C@H](OC(=O)c1cc(O)c(O)c(O)c1)O[C@@H]2CO (stereo partly specified) [FUROSIN] | > 10 µg/mL | > 10 µg/mL | > 10 µg/mL | 0.67 µg/mL | > 10 µg/mL
25 | O=C1OC[C@H]2OC(O)[C@@H]3OC(=O)c4cc(O)c(O)c(O)c4-c4c(cc(O)c(O)c4O)C(=O)O[C@H]3[C@@H]2OC(=O)c2cc(O)c(O)c(O)c2-c2c1cc(O)c(O)c2O (stereo partly specified) [PEDUNCULAGIN] | > 10 µg/mL | > 10 µg/mL | > 10 µg/mL | 2.74 µg/mL | > 10 µg/mL
26 | O=C(O[C@@H]1O[C@@H]2COC(=O)c3cc(O)c(O)c(O)c3-c3c(cc(O)c(O)c3O)C(=O)O[C@H]2[C@@H]2OC(=O)c3cc(O)c(O)c(O)c3-c3c(cc(O)c(O)c3O)C(=O)O[C@@H]12)c1cc(O)c(O)c(O)c1 | > 10 µg/mL | > 10 µg/mL | > 10 µg/mL | 0.21 µg/mL | > 10 µg/mL
27 | Cc1c2oc3c(C)ccc(C(=O)N[C@@H]4C(=O)N[C@H](C(C)C)C(=O)N5CCC[C@H]5C(=O)N(C)CC(=O)N(C)[C@@H](C(C)C)C(=O)O[C@@H]4C)c3nc-2c(C(=O)N[C@@H]2C(=O)N[C@H](C(C)C)C(=O)N3CCC[C@H]3C(=O)N(C)CC(=O)N(C)[C@@H](C(C)C)C(=O)O[C@@H]2C)c(N)c1=O [DACTINOMYCIN] (I: T[dV]P[Sar][NMeV] / II: T[dV]P[Sar][NMeV]; ester I:1-I:C, II:1-II:C; linker I:N-II:N via Actinocin(1to9)) |  |  |  | < 0.01 µg/mL | 
